Test results reported in the supplement of paper PMC10307832.

Legend:
Experiment in all cases: relative viability (nuclei count vs DMSO), 5 days (fraction); higher = more cells survive
Alpelisib + Bortezomib = compound: Cc1nc(NC(=O)N2CCC[C@H]2C(N)=O)sc1-c1ccnc(C(C)(C)C(F)(F)F)c1 [Alpelisib] + CC(C)C[C@H](NC(=O)[C@H](Cc1ccccc1)NC(=O)c1cnccn1)B(O)O [Bortezomib] (partner 0.002 µM)
How it was run: (§1)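 Values are medians from duplicate plates. Each reflects relative viability, defined as the nuclei count of treated wells over that of vehicle wells. Lung cancer cell lines in 1536-well plates were pin-tool dosed one day after seeding with one drug alone or with a fixed anchor-drug dose plus five library-drug doses (not always all listed) in √10 steps, then fixed, stained and imaged at 4× after 5 days.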

Vemurafenib + Olaparib = compound: CCCS(=O)(=O)Nc1ccc(F)c(C(=O)c2c[nH]c3ncc(-c4ccc(Cl)cc4)cc23)c1F [Vemurafenib] + O=C(c1cc(Cc2n[nH]c(=O)c3ccccc23)ccc1F)N1CCN(C(=O)C2CC2)CC1 [Olaparib] (partner 8 µM)
How it was run: as §1

Vemurafenib + Crizotinib = compound: CCCS(=O)(=O)Nc1ccc(F)c(C(=O)c2c[nH]c3ncc(-c4ccc(Cl)cc4)cc23)c1F [Vemurafenib] + C[C@@H](Oc1cc(-c2cnn(C3CCNCC3)c2)cnc1N)c1c(Cl)ccc(F)c1Cl [Crizotinib] (partner 1 µM)
How it was run: as §1

Alpelisib + Phenformin = compound: Cc1nc(NC(=O)N2CCC[C@H]2C(N)=O)sc1-c1ccnc(C(C)(C)C(F)(F)F)c1 [Alpelisib] + N=C(N)NC(=N)NCCc1ccccc1 [Phenformin] (partner 250 µM)
How it was run: as §1

Row | Cell Line | relative viability (Alpelisib + Bortezomib; first compound 0.04 µM) | relative viability (Alpelisib + Bortezomib; first compound 0.1265 µM) | relative viability (Alpelisib + Bortezomib; first compound 0.4 µM) | relative viability (Alpelisib + Bortezomib; first compound 1.265 µM) | relative viability (Alpelisib + Bortezomib; first compound 4 µM) | relative viability (Vemurafenib + Olaparib; first compound 0.03162 µM) | relative viability (Vemurafenib + Olaparib; first compound 0.1 µM) | relative viability (Vemurafenib + Olaparib; first compound 1 µM) | relative viability (Vemurafenib + Crizotinib; first compound 0.03162 µM) | relative viability (Vemurafenib + Crizotinib; first compound 0.1 µM) | relative viability (Vemurafenib + Crizotinib; first compound 1 µM) | relative viability (Alpelisib + Phenformin; first compound 0.04 µM) | relative viability (Alpelisib + Phenformin; first compound 0.1265 µM) | relative viability (Alpelisib + Phenformin; first compound 0.4 µM) | relative viability (Alpelisib + Phenformin; first compound 1.265 µM) | relative viability (Alpelisib + Phenformin; first compound 4 µM) | relative viability (Vemurafenib + Olaparib; first compound 0.3162 µM) | relative viability (Vemurafenib + Crizotinib; first compound 0.3162 µM)
1 | HCC-366 | 0.974 | 1.05 | 1.02 | 0.82 | 0.419 | 0.343 | 0.304 | 0.388 | 0.465 | 0.468 | 0.412 | 0.639 | 0.608 | 0.636 | 0.428 | 0.139 |  | 
2 | HCC-827 | 1.1 | 0.904 | 1.28 | 1.02 | 0.942 | 0.624 |  | 0.632 | 0.825 |  | 0.863 | 0.424 | 0.419 | 0.338 | 0.371 | 0.303 | 0.65 | 0.924
3 | HOP-62 | 0.749 | 0.397 | 0.986 | 0.811 | 0.807 | 0.38 | 0.388 | 0.438 | 0.905 | 0.987 | 0.862 | 0.642 | 0.611 | 0.761 | 0.561 | 0.633 | 0.412 | 0.94
4 | IA-LM | 0.985 | 0.794 | 0.794 | 0.698 | 0.728 | 0.67 | 0.818 | 0.721 | 0.694 | 0.916 | 0.422 |  |  |  |  |  | 0.78 | 1.1
5 | LC-2-ad | 1.05 | 1.01 | 1.09 | 0.955 | 0.844 | 0.691 | 0.645 | 0.69 | 0.315 | 0.461 | 0.392 | 0.603 | 0.549 | 0.586 | 0.338 | 0.427 | 0.763 | 0.377
6 | LCLC-97TM1 | 0.682 |  | 0.86 | 0.384 | 0.237 |  | 0.416 | 0.269 | 0.287 | 0.246 | 0.278 | 0.493 | 0.439 | 0.385 | 0.248 | 0.19 | 0.353 | 0.301
7 | LCLC-103H | 0.819 | 0.964 | 1.03 | 1.05 | 0.831 | 0.644 | 0.71 | 0.797 | 1.06 | 1.06 | 1.09 | 0.344 | 0.347 | 0.311 | 0.245 | 0.272 | 0.742 | 1.01
8 | LK-2 |  |  |  |  |  | 0.618 | 0.633 | 0.417 | 0.193 | 0.202 | 0.245 | 0.4 | 0.233 | 0.213 | 0.226 | 0.161 | 0.644 | 0.208
9 | LOU-NH91 | 0.478 | 0.457 | 0.51 | 0.537 | 0.474 | 0.876 | 0.671 | 0.894 | 0.691 | 0.515 | 0.752 | 0.668 | 0.58 | 0.648 | 0.525 | 0.472 | 0.743 | 
10 | LU99A | 1.07 | 1.12 | 1.14 | 0.874 | 0.614 | 0.245 | 0.259 | 0.264 | 0.531 | 0.489 | 0.526 | 0.883 | 0.843 | 0.856 | 0.709 | 0.657 |  | 0.516
11 | LXF-289 | 1 | 1.03 | 1.07 | 0.902 | 1.04 | 1.02 | 1.06 | 1 | 0.783 | 0.796 | 0.87 | 0.482 | 0.527 | 0.513 | 0.481 | 0.482 | 1.09 | 0.838
12 | NCI-H358 |  |  |  |  |  | 0.539 | 0.745 | 0.521 | 0.619 |  | 0.528 | 0.309 | 0.321 | 0.338 | 0.242 | 0.16 | 0.625 | 0.72
13 | NCI-H522 |  |  |  |  |  | 0.667 | 0.543 | 0.725 |  |  |  | 0.573 | 0.601 | 0.782 | 0.5 | 0.582 | 0.669 | 
14 | NCI-H1299 | 1.05 | 1.08 | 1.03 | 1.02 | 0.966 | 0.906 | 0.954 | 0.792 | 0.951 | 0.929 | 0.94 |  |  |  |  |  | 0.863 | 0.9
15 | NCI-H1395 |  |  |  |  |  | 0.405 | 0.506 | 0.482 |  |  |  | 0.458 | 0.395 | 0.46 | 0.374 | 0.434 | 0.429 | 
16 | NCI-H1563 | 0.807 | 0.85 | 0.816 | 0.687 | 0.803 |  |  |  | 0.825 | 0.744 | 0.852 | 0.637 | 0.698 | 0.64 | 0.604 | 0.589 |  | 0.823
17 | NCI-H1623 |  |  |  |  |  |  |  |  |  |  |  | 0.548 | 0.545 | 0.516 | 0.532 | 0.426 |  | 
18 | NCI-H1648 |  |  |  |  |  |  | 0.434 | 0.761 |  |  |  |  |  |  |  |  | 0.927 | 
19 | NCI-H1703 | 0.348 | 0.208 | 0.231 | 0.223 | 0.234 | 0.432 | 0.307 | 0.515 | 0.605 | 0.449 | 0.593 |  |  |  |  |  | 0.454 | 0.453
20 | NCI-H1793 |  |  |  |  |  | 0.778 | 0.497 | 1.06 |  |  |  | 0.365 | 0.322 | 0.365 | 0.301 | 0.238 | 0.879 | 
21 | NCI-H1944 |  |  |  |  |  | 0.426 |  | 0.359 | 1.03 | 0.816 | 1.06 | 0.194 | 0.214 | 0.182 | 0.16 | 0.138 | 0.384 | 1.09
22 | NCI-H2170 |  |  |  |  |  | 0.54 |  | 0.553 | 1.09 | 0.752 | 1.14 | 0.466 | 0.384 | 0.438 | 0.45 | 0.387 | 0.624 | 1.15
23 | NCI-H2342 |  |  |  |  |  | 0.401 | 0.429 | 0.354 |  |  |  | 0.606 | 0.587 | 0.559 | 0.519 | 0.439 | 0.608 | 
24 | SK-MES-1 |  |  |  |  |  | 0.623 | 0.576 | 0.688 | 0.934 | 0.978 | 0.901 | 0.662 | 0.635 | 0.755 | 0.608 | 0.675 | 0.777 | 0.903
25 | SW 900 |  |  |  |  |  | 0.812 | 0.607 | 0.994 |  |  |  | 0.561 | 0.525 | 0.449 | 0.474 | 0.347 | 0.939 | 
